Positions of bridges follow the written chain, without caps; N, C: chain ends. Non-standard residues stand in square brackets, D forms with d. Residues, ends and D or L forms follow the SMILES beside them. dLys(iPr) = CC(C)NCCCC[C@@H](N)C(=O)O; Lys(iPr) = CC(C)NCCCC[C@H](N)C(=O)O; Orn(iPr) = CC(C)NCCC[C@H](N)C(=O)O; Ac3c = NC1(C(=O)O)CC1

Data set [1] relates to human red blood cells (hRBC). The format is cell-based. The settings on record: red cells of human, 1 h. As for the experimental part: The peptides were tested for their hemolytic activity against human red blood cells (hRBC). Fresh hRBC were washed four times with phosphate buffered saline (PBS) and centrifuged for 10 min at 3000×g. Compounds (100 μM) were incubated with 20% hRBC (v/v) for 1 h at 37° C. and shaking at 300 rpm. The final erythrocyte concentration was approximately 0.9×10^9 cells/mL. A value of 0% and 100% cell lysis, respectively, was determined by incubation of hRBC in the presence of PBS containing 0.001% acetic acid and 2.5% Triton X-100 in H2O, respectively. The samples were centrifuged, the supernatants were 8-fold diluted in PBS buffer and the optical densities (OD) were measured at 540 nm. The 100% lyses value (OD540H2O) gave an OD540 of approximately 0.5-1.0.
Percent hemolysis was calculated as follows: (OD540peptide/OD540H2O)×100%.

Data set [2] can be described thus: Plasma stability, human plasma. The settings on record: for human pl. T1/2: 37° C.; for remaining at 24 h, 10 μM: 1440 min, read-out: human pl. cpd left at 1440 min. The data set is classed as in vitro ADME. As for the experimental part: (§1) The stability of the peptides in human and mouse plasma was determined by applying the following method: 346.5 μL/deep well of freshly thawed human plasma (Basler Blutspende-dienst) and mouse plasma (Harlan Sera-Lab, UK), respectively, were spiked with 3.5 μL/well of compound dissolved in DMSO/H2O (90/10 [v/v], 1 mM, triplicate) and incubated at 37° C. At t=0, 15, 30, 60, 120, 240 and 1440 min aliquots of 50 μL were transferred to filtration plate wells containing 150 μL/well of 2% formic acid in acetonitrile. Following shaking for 2 min the occurred suspensions were filtrated by vacuum. 100 μL of each filtrate were transferred to a propylene microtiter plate and dried under N2. The residual solids were reconstituted by adding 100 μL/well of water/acetonitrile, 95/5 (v/v)+0.2% formic acid and analyzed by LC/MS as follows: Column: Waters, XBridge C18, mobile phases: (A) water+0.1% formic acid and (B) acetonitrile/water, 95/5 (v/v)+0.1% formic acid, gradient: 5%-100% (B) in 1.8 minutes, electrospray ionization, MRM detection (triple quadrupole). The peak areas were determined and triplicate values are averaged. The stability is expressed in percent of the initial value at t=0. (tx/t0×100). By using the TREND function of EXCEL (Microsoft Office 2003) T1/2 were determined.

Data set [3] can be described thus: Plasma stability, mouse plasma. Conditions: for mouse pl. T1/2: 37° C.; for remaining at 24 h, 10 μM: 1440 min, read-out: mouse pl. cpd left at 1440 min. The data set is classed as in vitro ADME. As for the experimental part:
as §1

The nature of data set [4]: Pharmacokinetic study (PK) after intravenous administration. The data set is classed as in vivo, male CD-1 mice. The settings on record: mouse, i.v. 1 mg/kg; for AUC(0-inf) / Cmax / half-life / clearance / Vd: one-compartmental model; for clearance: read-out: CLiv (converted); for Vd: read-out: Vdis. As for the experimental part:
For the compounds of Ex. 1 and Ex. 2 pharmacokinetic studies after intravenous (i.v.) administration were performed.
30 grams (±20%) male CD-1 mice obtained from Charles River Laboratories Deutschland GmbH were used. The vehicle, phosphate buffered saline, was added to give a final concentration of 0.5 mg/mL of the compound. The volume was 2 mL/kg and the compound was injected to give a final intravenous dose of 1 mg/kg. Approximately 300-400 μL of blood was removed under light isoflurane anesthesia by cardiac puncture at predetermined time intervals (5, 15, 30 min and 1, 2, 3, 4, hours) and added to heparinized tubes. Plasma was removed from pelleted cells upon centrifugation and frozen at −80° C. prior to HPLC-MS analysis.
Aliquots of 50 μL each of mouse plasma of untreated aminals (“blank” mouse plasma) were spiked with known amounts of the compounds Ex. 1 and Ex. 2 in order to obtain 10 plasma calibration samples for each compound in the range 1-4000 ng/mL.
Aliquots of 50 μL each of mouse plasma from treated animals were used as plasma study samples.
All plasma samples were spiked with an appropriate internal standard and extracted with acetonitrile containing 2% formic acid. Supernatants were evaporated to dryness under nitrogen and the remaining solids reconstituted in water+0.2% formic acid/acetonitrile 95/5 (v/v).
Extracts were then analyzed by reverse-phase chromatography (Acquity HSS C18 SB, 100×2.1 mm, 1.8 μm column, Waters), using the following conditions: mobile phases: (A) water+0.1% formic acid/acetonitrile 95/5 (v/v), (B) aceto-nitrile/water+0.1% formic acid 95/5 (v/v), gradient: 1% (B) 0-0.1 min, 40% (B) 0.1-2.5. The detection and quantification was performed by mass spectrometry, with electrospray interface in positive mode and selective fragmentation of analytes (4000 Q Trap mass spectrometer, AB Sciex).
PK parameters were calculated by WinNonLin™ software version 5.3 (Pharsight-A Certara™ Company, Mountain View, Calif. 94041 USA) using a one-compartmental model analysis. PK parameters were determined by least-square fitting of the model to the experimental data.

Data set [5] is described as follows: Drug loading calculations via maintenance dose rate. The settings on record: CLiv-mouse scaled by 0.127 (GFR human/mouse). As for the experimental part: The drug load for an implant comprising a peptide of the invention was calculated following the basic principles in pharmacokinetics (see also J. Gabrielsson, D. Weiner, “Pharmacokinetics and Pharmaco-dynamics Data Analysis: Concepts and Applications”, 4th edition, Swedish Pharmaceutical Press, Stockholm, Sweden, 2006) whereby the maintenance dose rate (rate of infusion, Rin) can be defined as the rate at which a drug is to be administered to reach a steady state of a certain dose in the plasma. The maintenance dose rate can be expressed using the correlation Rin [g/(h*kg)]=CLiv, [L/(h*kg)]×Css,eff [g/L], wherein CLiv, is the clearance (i.v.—admin.) and Css,eff the effective concentration of the drug in the plasma at steady state considering an efficacy margin A: Css,eff[g/L]=A×(IC50/fu)×MW [(Mol/L)*(g/Mol)]. Therefore, the total amount of a drug loaded into an implant providing for a constant effective concentration of that drug in the plasma for a certain period of time in a subject of a certain body weight can be calculated by applying the following correlation: Drugload [g/subject]=Rin [g/(h*kg)]×duration [h]×BW [kg/subject].
Further pre-conditions are an efficacy margin of A=3, a study duration of 672 h (28 days) and a body weight of a human subject of 70 kg. […]

[6] abbreviates: male, CD-1, plasma, iv, read-out: Calc. Conc. (plasma).

In general, AUC(0-inf) refers to the area under the concentration-time curve extrapolated to infinity. For orientation: Cmax means the peak of the concentration-time curve. As a reminder, the half-life is how long it takes for the measured level to halve. A lower half-life goes with fast loss. As for `CC(C)NCCCC[C@@H]1NC(=O)[C@H](CCC(N)=O)NC(=O)[C@H](Cc2ccc(O)cc2)NC(=O)[C@@H]2CSSC[C@H](NC(=O)[C@H](Cc3ccc(O)cc3)NC(=O)[C@H](Cc3c[nH]cn3)NC(=O)[C@H](Cc3ccc(O)cc3)NC(=O)[C@@H]3CCCN3C(=O)[C@@H](CCCCNC(C)C)NC1=O)C(=O)N[C@@H](CO)C(=O)N[C@@H](C)C(=O)N1CCC[C@@H]1C(=O)N[C@@H](CCCNC(C)C)C(=O)N[C@@H](CCCNC(=N)N)C(=O)N[C@@H](Cc1ccc(O)cc1)C(=O)N2` [Ex. 1, cyclo(-Tyr^1-His^2-Tyr^3-Cys^4-Ser^5-Ala^6-^DPro^7-Orn(iPr)^8-Arg^9-Tyr^10-Cys^11-Tyr^12-Gln^13-Lys(iPr)^14-^DLys(iPr)^15-Pro^16-), disulfide bond between Cys^4 and Cys^11] (cyclo(A[dP][Orn(iPr)]RYCYQ[Lys(iPr)][dLys(iPr)]PYHYCS); disulfide 6-15), in data set [1], the “Hemolysis at 100 μM” value is 1.0%. Further, in data set [2], the “human pl. T1/2” value came out at 24 h and the remaining at 24 h, 10 μM was determined as 100%. In addition, in data set [3], the “mouse pl. T1/2” value was 24 h and the remaining at 24 h, 10 μM was 100%. In addition, in data set [4] (male, CD-1, plasma, iv), the area under the curve AUC(0-inf) was found to be 1020 ng·h/mL, the Cmax was found to be 1880 ng/mL, the half-life was 0.4 h and the clearance is 16.4 mL/min/kg. The Vd in data set [4] (male, CD-1, plasma, iv) was 0.532 L/kg. In addition, in data set [4] (setting [6]), the level at 0.083 h was 1690 ng/mL, the level at 0.25 h is 1050 ng/mL, the level at 0.5 h is 749 ng/mL and the level at 1 h was 385 ng/mL. Further, in data set [4] (setting [6]), the level at 2 h is 61 ng/mL. Also, in data set [4] (time 3 h), the “Calc. Conc. (plasma)” value is on record as “<LoQ”. Besides, the “Calc. Conc. (plasma)” value in data set [4] (time 4 h) is “<LoQ”. Besides, the “CLiv, human (allometric scaled)” value in data set [5] is 2.08 mL/min/kg.

Consider `CC(C)NCCCC[C@@H]1NC(=O)[C@H](CCC(N)=O)NC(=O)[C@H](Cc2ccc(O)cc2)NC(=O)[C@@H]2CSSC[C@H](NC(=O)[C@H](Cc3ccc(O)cc3)NC(=O)[C@H](Cc3c[nH]cn3)NC(=O)[C@H](Cc3ccc(O)cc3)NC(=O)[C@@H]3CCCN3C(=O)[C@H]3CCCN3C1=O)C(=O)N[C@@H](CO)C(=O)NC1(CC1)C(=O)N1CCC[C@@H]1C(=O)N[C@@H](CCCNC(C)C)C(=O)N[C@@H](CCCNC(=N)N)C(=O)N[C@@H](Cc1ccc(O)cc1)C(=O)N2` [Ex. 2, cyclo(-Tyr^1-His^2-Tyr^3-Cys^4-Ser^5-Acc^6-^DPro^7-Orn(iPr)^8-Arg^9-Tyr^10-Cys^11-Tyr^12-Gln^13-Lys(iPr)^14-^DPro^15-Pro^16-), disulfide bond between Cys^4 and Cys^11] (cyclo(YHYCS[Ac3c][dP][Orn(iPr)]RYCYQ[Lys(iPr)][dP]P); disulfide 4-11), for which the “Hemolysis at 100 μM” value in data set [1] is listed as 1.0%. For the same molecule, in data set [2], the “human pl. T1/2” value amounted to 24 h and the remaining at 24 h, 10 μM is 87%. Moreover, in data set [3], the “mouse pl. T1/2” value was 24 h and the remaining at 24 h, 10 μM amounted to 100%. In data set [4] (male, CD-1, plasma, iv), the AUC(0-inf) worked out at 1460 ng·h/mL, the highest level (Cmax) was 1470 ng/mL, the half-life is 0.7 h and the clearance is 11.4 mL/min/kg. In addition, the Vd in data set [4] (male, CD-1, plasma, iv) was 0.681 L/kg. Also, in data set [4] (setting [6]), the level at 0.083 h was 1250 ng/mL, the level at 0.25 h was 1210 ng/mL, the level at 0.5 h was 996 ng/mL and the level at 1 h was 516 ng/mL. The level at 2 h in data set [4] (setting [6]) is 117 ng/mL. The level at 3 h in data set [4] (male, CD-1, plasma, iv, time 3 h, read-out: Calc. Conc. (plasma)) is 24 ng/mL. Also, in data set [4] (male, CD-1, plasma, iv, time 4 h, read-out: Calc. Conc. (plasma)), the level at 4 h is 14 ng/mL. The “CLiv, human (allometric scaled)” value in data set [5] was 1.45 mL/min/kg.

The record behind these values is patent publication US10363284B2, “β-hairpin peptidomimetics” (POLYPHOR AG, priority 2012, dated 2019).
